This note sets out measurements from the NIST ThermoML archive (doi:10.1021/acs.jced.9b00011).

Series [1] can be described thus: Molar enthalpy of transition or fusion. Conditions: Crystal; DSC.
The conditions of series [2]: Crystal; DSC.

Numbers after ± are expanded uncertainties.

Turning to `COc1ccc(OC)c(N)c1` [2,5-dimethoxyaniline], in series [1], the “Molar enthalpy of transition or fusion” value is 5.55 ± 1.1 kcal/mol. Besides, in series [2], the Triple point temperature is on record as 352.56 ± 2.3 K.
In the case of `COc1cc(Cl)c(OC)cc1N` [4-chloro-2,5-dimethoxyaniline], the “Molar enthalpy of transition or fusion” value in series [1] worked out at 5.88 ± 0.908 kcal/mol. In addition, the Triple point temperature in series [2] turned out to be 389.38 ± 3.7 K.
